#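 Five concentrations, 48 hours, 96-well plates. Abbreviation: GI50, concentration required for 50% inhibition of growth.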 Calls of active or inactive are those of the source. Rule as the data show it: active = GI50 up to about 1.1 µM and inactive = higher.
# Key:
# Test in all cases: NCI-60 cell line screen, 48 h
# OVCAR-4 = tested on: OVCAR-4
# TK-10 = tested on: TK-10
# SK-MEL-2 = tested on: SK-MEL-2
# U-251 = tested on: U-251
# KM-20L2 = tested on: KM-20L2
# HCC 2998 = tested on: HCC 2998
# SNB-78 = tested on: SNB-78
# A498 = tested on: A498
# CAKI-1 = tested on: CAKI-1
# LXFL 529 = tested on: LXFL 529
# A549 = tested on: A549
# MCF7 = tested on: MCF7
# RPMI-8226 = tested on: RPMI-8226
# SK-OV-3 = tested on: SK-OV-3
# SF-268 = tested on: SF-268
# NCI-H460 = tested on: NCI-H460
# MDA-N = tested on: MDA-N
# MOLT-4 = tested on: MOLT-4
# UO-31 = tested on: UO-31
# DLD-1 = tested on: DLD-1
smiles,measurement,setting,value
CCN(CC)CCCNc1ccc2nc(C)n3c4ccc(O)cc4c(=O)c1c23,GI50,OVCAR-4,4.65 µM (inactive)
same,GI50,TK-10,7.16 µM (inactive)
same,GI50,SK-MEL-2,6.35 µM (inactive)
same,GI50,U-251,5.36 µM (inactive)
same,GI50,KM-20L2,1.65 µM (inactive)
same,GI50,HCC 2998,7.43 µM (inactive)
same,GI50,SNB-78,5.35 µM (inactive)
same,GI50,A498,11.9 µM (inactive)
same,GI50,CAKI-1,4.78 µM (inactive)
same,GI50,LXFL 529,3.22 µM (inactive)
same,GI50,A549,2.11 µM (inactive)
same,GI50,MCF7,0.863 µM (active)
same,GI50,RPMI-8226,1.9 µM (inactive)
same,GI50,SK-OV-3,6.64 µM (inactive)
same,GI50,SF-268,1.96 µM (inactive)
same,GI50,NCI-H460,0.838 µM (active)
same,GI50,MDA-N,7.53 µM (inactive)
same,GI50,MOLT-4,0.301 µM (active)
same,GI50,UO-31,5.89 µM (inactive)
same,GI50,DLD-1,1.2 µM (inactive)

# — ChEMBL document CHEMBL1201862, “PubChem BioAssay data set” (2004)
